In publication PMC6720883, “In Vitro Inhibitory Effects of APINACA on Human Major Cytochrome P450, UDP-Glucuronosyltransferase Enzymes, and Drug Transporters” (Molecules, 2019) one finds IC50 and Ki data, which are given here for one compound.

Read-outs that look alike come from different tables or passages of the source.

For orientation: IC50 means the concentration needed to halve the response being measured. In general, Ki refers to the equilibrium dissociation constant of an inhibitor or competing ligand from its target.

One experiment concerns the target T1, OATP1B1 (Homo sapiens, UniProt Q9Y6L6).
T1 construct: host or cells: HEK293 (transient overexpression)
T1 sequence (Q9Y6L6 1-691): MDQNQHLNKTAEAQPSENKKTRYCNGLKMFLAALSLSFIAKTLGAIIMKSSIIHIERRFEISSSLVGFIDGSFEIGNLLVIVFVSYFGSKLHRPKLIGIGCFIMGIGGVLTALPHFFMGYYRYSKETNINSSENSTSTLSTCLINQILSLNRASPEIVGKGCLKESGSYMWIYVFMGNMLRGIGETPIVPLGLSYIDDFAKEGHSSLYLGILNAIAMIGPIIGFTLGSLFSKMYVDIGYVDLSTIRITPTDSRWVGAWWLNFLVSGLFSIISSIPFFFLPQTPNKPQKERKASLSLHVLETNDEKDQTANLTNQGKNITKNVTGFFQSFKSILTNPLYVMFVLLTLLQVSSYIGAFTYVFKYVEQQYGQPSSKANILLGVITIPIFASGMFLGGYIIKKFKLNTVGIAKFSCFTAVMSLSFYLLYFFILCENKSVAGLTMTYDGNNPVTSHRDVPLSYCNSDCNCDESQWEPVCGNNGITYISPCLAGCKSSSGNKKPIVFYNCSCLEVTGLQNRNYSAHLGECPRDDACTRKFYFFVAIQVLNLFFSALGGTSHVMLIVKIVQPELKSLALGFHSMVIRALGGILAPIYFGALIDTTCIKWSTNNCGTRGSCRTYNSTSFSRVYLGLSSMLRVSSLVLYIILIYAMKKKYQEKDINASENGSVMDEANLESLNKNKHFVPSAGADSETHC
As to the kind of experiment: Uptake of [3-H]estrone-3-sulfate in HEK293-OATP1B1 cells. Format: in vitro ADME. How it is done:
(§1) To examine the effects of APINACA and typical inhibitors on transporter activity, the uptake of a probe substrate into HEK293 cells overexpressing the respective solute carrier transporters was measured in the presence of APINACA (final concentrations of 0–250 μM) or typical inhibitors for 5 min. The concentrations and probe substrates were selected as follows: 0.1 μM [3-H]MPP^+ (for OCT1 and OCT2), 0.1 μM [3-H]PAH (for OAT1), 0.1 μM [3-H]ES (for OAT3 and OATP1B1), and 0.1 μM [3-H]EG (for OATP1B3).
(§2) 12.5 (Systat Software, Inc.; San Jose, CA, USA). […] 1.1 (Systat Software, Inc.).

Experiment [1] addresses human dopamine transporter. Details: method as in PMID 28824464. The following applies: human dopamine transporter overexpressed system; read-out: Ki for inhibition of dopamine uptake; cited from earlier work.
Another experiment deals with UGT2B7 (Homo sapiens, UniProt P16662). As to the kind of experiment: Inhibition of UGT2B7-catalyzed naloxone 3-β-D-glucuronidation in human liver microsomes. It is filed as in vitro ADME. Background: Microsomes from liver hold many membrane-bound enzymes, among them those of drug oxidation.
For a further experiment, the target named is T2, UGT1A1 (Homo sapiens, UniProt P22309).
T2 construct: […]; tissue Corning Life Sciences
T2 sequence (P22309 26-533): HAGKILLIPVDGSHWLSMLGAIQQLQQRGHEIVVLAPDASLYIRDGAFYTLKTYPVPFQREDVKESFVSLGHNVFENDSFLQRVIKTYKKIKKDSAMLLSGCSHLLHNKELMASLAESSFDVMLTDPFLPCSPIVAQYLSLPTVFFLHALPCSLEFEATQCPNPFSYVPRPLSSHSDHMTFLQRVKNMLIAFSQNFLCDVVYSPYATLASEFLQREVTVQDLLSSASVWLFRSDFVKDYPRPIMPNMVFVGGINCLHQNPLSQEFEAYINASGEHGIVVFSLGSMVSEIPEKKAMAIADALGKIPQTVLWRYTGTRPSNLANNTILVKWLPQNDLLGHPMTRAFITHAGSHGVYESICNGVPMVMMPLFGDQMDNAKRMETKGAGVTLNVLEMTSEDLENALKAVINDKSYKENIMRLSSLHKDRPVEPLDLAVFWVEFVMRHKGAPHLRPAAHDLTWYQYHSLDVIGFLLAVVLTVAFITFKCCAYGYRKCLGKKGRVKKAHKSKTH
The experiment in a line: biochemical. Format: in vitro ADME.
Excerpt: as §2

Another experiment addresses OAT1 (Homo sapiens, UniProt Q4U2R8). As to the kind of experiment: Uptake of [3-H]para-aminohippuric acid in HEK293-OAT1 cells.
The next experiment has as its target T3, OCT2 (Homo sapiens, UniProt O15244).
T3 construct: host or cells: HEK293 (transient overexpression)
T3 sequence (O15244 1-555): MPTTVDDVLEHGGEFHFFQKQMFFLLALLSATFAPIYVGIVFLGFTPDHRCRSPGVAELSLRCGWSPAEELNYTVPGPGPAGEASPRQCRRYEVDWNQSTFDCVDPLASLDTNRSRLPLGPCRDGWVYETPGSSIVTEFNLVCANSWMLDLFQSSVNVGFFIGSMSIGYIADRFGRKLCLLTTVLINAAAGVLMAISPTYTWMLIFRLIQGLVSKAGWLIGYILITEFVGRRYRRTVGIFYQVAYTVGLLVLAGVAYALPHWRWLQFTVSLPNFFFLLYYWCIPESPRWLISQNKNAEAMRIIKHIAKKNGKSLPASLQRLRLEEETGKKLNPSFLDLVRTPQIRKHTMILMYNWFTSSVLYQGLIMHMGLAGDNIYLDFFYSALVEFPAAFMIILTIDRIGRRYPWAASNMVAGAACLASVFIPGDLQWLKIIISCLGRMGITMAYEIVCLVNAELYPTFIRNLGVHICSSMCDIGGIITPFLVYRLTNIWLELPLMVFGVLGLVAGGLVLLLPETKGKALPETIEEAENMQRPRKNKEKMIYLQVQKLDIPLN
The experiment in a line: Uptake of [3-H]methyl-4-phenylpyridinium in HEK293-OCT2 cells. It is filed as in vitro ADME. As to the method: as §1, §2

Sequence of UGT2B7 (P16662 24-529): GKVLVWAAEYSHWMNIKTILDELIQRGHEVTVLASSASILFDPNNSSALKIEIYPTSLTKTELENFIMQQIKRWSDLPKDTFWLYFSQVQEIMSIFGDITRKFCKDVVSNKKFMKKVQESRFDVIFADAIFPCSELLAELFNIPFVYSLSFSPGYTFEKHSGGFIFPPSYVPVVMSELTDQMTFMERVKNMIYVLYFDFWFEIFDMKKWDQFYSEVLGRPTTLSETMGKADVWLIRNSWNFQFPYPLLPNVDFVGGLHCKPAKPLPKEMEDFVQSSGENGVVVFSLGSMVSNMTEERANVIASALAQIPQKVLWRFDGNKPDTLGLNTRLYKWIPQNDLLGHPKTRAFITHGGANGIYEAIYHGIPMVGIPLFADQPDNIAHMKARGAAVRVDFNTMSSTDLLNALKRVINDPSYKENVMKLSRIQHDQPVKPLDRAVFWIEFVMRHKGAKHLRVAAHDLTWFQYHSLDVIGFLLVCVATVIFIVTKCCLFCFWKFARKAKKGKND
Sequence of OAT1 (Q4U2R8 whole entry): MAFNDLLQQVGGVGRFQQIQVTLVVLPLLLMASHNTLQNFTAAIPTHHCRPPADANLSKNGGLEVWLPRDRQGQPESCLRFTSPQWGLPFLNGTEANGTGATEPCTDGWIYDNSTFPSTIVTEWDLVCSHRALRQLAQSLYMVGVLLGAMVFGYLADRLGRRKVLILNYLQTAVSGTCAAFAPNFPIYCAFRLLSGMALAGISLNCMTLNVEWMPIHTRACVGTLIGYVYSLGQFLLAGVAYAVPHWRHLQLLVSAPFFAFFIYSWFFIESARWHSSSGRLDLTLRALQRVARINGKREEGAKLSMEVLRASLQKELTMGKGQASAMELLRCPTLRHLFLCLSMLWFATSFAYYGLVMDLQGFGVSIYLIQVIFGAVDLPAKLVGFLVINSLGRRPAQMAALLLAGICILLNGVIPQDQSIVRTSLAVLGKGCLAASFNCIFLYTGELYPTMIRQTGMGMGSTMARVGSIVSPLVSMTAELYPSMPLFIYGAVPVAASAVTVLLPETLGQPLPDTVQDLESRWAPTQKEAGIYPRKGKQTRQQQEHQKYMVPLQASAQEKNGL
Description for UGT2B7: The inhibitory effect of APINACA and typical UGT inhibitors on UGT1A1, UGT1A3, UGT1A4, UGT1A6, UGT1A9, and UGT2B7 were evaluated following our previous method by LC–MS/MS after incubation of ultrapooled human liver microsomes with a cocktail of UGT substrates [44]. […] The reactions were initiated by adding UDPGA, and the incubation continued for 60 min at 37 °C in a shaking water bath. The reactions were terminated by adding 50 μL of ice-cold acetonitrile containing internal standards (propofol glucuronide for chenodeoxycholic acid 24-acyl-β-glucuronide and mycophenolic acid glucuronide; and meloxicam for SN-38 glucuronide, trifluoperazine glucuronide, N-acetylserotonin β-D-glucuronide, and naloxone 3-β-D-glucuronide). The incubation mixtures were centrifuged at 13,000× g for 8 min at 4 °C. Next, 50 μL of each supernatant of A and B set was mixed, and aliquots (5 μL) were analyzed by LC–MS/MS. All assays were performed in triplicate, and the average values were used in calculations.
To measure the time-dependent inhibition, human liver microsomes were preincubated with the various concentrations of APINACA (final concentrations of 0.1–100 μM) and UDPGA for 30 min at 37 °C. Next, the reaction mixtures were incubated with UGT probe substrate cocktail sets for 60 min at 37 °C. The control reaction was performed by adding methanol instead of the test compounds.

As for `CCCCCn1nc(C(=O)NC23CC4CC(CC(C4)C2)C3)c2ccccc21` [APINACA, N-(1-adamantyl)-1-pentyl-1H-indazole-3-carboxamide], the concentration for half-maximal inhibition (IC50) at OATP1B1 was more than 250 µM; against UGT2B7, more than 100 µM; on UGT2B7 (read-out: IC50 UGT2B7 naloxone 3-β-D-glucuronidation, with 30-min preincubation, pooled human liver microsomes, 30-min preincubation with UDPGA (○)), more than 100 µM; against UGT1A1, more than 100 µM; at UGT1A1 (read-out: IC50 UGT1A1 SN-38 glucuronidation, with 30-min preincubation, pooled human liver microsomes, 30-min preincubation with UDPGA (○)), more than 100 µM; at OAT1, more than 250 µM. Besides, the concentration for half-maximal inhibition (IC50) against OCT2 is more than 250 µM. In experiment [1], the inhibitory constant (Ki) was 4.6 µM.
